{
  "source": "PubChem BioAssay AID504400",
  "about": "(The Scripps Research Institute Molecular Screening Center, 2011)",
  "assay_in_all_cases": "CYP450 and receptor off-target profile – biochemical, Ricerca HitProfilingScreen, selectivity assay for S1P4 agonist project, late-stage follow-up (AID 504400)",
  "key": {"[1]": {"target": "5-hydroxytryptamine receptor 2B (Homo sapiens) (UniProt P41595)", "sequence (P41595 whole entry, looked up)": "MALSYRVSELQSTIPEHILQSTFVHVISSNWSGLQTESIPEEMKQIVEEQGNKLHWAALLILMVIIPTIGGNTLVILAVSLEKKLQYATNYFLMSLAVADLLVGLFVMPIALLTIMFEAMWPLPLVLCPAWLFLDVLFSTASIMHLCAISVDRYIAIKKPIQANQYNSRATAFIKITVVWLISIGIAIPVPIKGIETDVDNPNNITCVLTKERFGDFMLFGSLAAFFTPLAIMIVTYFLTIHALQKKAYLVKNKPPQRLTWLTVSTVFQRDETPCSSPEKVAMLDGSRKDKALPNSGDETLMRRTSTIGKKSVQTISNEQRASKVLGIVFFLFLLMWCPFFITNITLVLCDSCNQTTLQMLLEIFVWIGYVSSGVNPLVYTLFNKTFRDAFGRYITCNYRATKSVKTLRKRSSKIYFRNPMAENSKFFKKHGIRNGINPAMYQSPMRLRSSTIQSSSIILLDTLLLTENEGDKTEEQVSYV", "conditions": "Ricerca radioligand binding/enzyme panel plus CYP450; Serotonin (5-Hydroxytryptamine) 5-HT2B; at 10 µM; hits give high values"}, "Adenosine A1": {"test_system": "Adenosine A1", "conditions": "Ricerca radioligand binding/enzyme panel plus CYP450, at 10 µM, hits give high values"}, "Adenosine A2A": {"test_system": "Adenosine A2A", "conditions": "Ricerca radioligand binding/enzyme panel plus CYP450, at 10 µM, hits give high values"}, "Adrenergic alpha1A": {"test_system": "Adrenergic alpha1A", "conditions": "Ricerca radioligand binding/enzyme panel plus CYP450, at 10 µM, hits give high values"}, "Adrenergic alpha1B": {"test_system": "Adrenergic alpha1B", "conditions": "Ricerca radioligand binding/enzyme panel plus CYP450, at 10 µM, hits give high values"}, "Adrenergic beta1": {"test_system": "Adrenergic beta1", "conditions": "Ricerca radioligand binding/enzyme panel plus CYP450, at 10 µM, hits give high values"}, "[2]": {"target": "Alpha-2A adrenergic receptor (Homo sapiens) (UniProt P08913)", "sequence (P08913 whole entry, looked up)": "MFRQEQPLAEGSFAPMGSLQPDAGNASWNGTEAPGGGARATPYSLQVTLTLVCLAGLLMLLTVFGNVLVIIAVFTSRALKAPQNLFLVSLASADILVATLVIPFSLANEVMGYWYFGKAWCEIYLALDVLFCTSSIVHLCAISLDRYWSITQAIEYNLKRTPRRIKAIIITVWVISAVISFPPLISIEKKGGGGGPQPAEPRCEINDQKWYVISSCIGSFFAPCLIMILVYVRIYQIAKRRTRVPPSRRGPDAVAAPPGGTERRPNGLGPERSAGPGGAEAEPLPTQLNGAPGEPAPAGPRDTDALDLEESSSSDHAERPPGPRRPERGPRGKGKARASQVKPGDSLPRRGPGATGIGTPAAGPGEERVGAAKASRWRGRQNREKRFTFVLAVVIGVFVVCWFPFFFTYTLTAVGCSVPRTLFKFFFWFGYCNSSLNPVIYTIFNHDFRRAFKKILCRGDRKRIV", "conditions": "Ricerca radioligand binding/enzyme panel plus CYP450; Adrenergic alpha2A; at 10 µM; hits give high values"}, "[3]": {"test_system": "Alpha-2A adrenergic receptor (Homo sapiens) + Histamine H1 receptor (Homo sapiens) + Mu-type opioid receptor (Homo sapiens)", "conditions": "Ricerca radioligand binding/enzyme panel plus CYP450; at 10 µM; hits give high values"}, "[4]": {"target": "Beta-2 adrenergic receptor (Homo sapiens) (UniProt P07550)", "sequence (P07550 whole entry, looked up)": "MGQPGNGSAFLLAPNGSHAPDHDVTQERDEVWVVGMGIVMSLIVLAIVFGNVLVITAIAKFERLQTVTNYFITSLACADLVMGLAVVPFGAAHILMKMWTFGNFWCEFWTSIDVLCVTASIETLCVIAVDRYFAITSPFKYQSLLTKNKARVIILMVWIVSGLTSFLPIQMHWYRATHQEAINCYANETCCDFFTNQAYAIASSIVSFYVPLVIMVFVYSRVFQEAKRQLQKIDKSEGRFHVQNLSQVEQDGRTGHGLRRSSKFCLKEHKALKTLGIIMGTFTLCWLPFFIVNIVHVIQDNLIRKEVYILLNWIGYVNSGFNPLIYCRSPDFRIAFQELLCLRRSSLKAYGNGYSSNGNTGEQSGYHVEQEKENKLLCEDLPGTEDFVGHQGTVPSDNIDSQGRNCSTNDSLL", "conditions": "Ricerca radioligand binding/enzyme panel plus CYP450; Adrenergic beta2; at 10 µM; hits give high values"}, "CYP450, 2C19": {"test_system": "CYP450, 2C19", "conditions": "Ricerca radioligand binding/enzyme panel plus CYP450, at 10 µM, hits give high values"}, "Calcium Channel L-Type": {"test_system": "Calcium Channel L-Type", "conditions": "Ricerca radioligand binding/enzyme panel plus CYP450, Dihydropyridine, at 10 µM, hits give high values"}, "Cannabinoid CB1": {"test_system": "Cannabinoid CB1", "conditions": "Ricerca radioligand binding/enzyme panel plus CYP450, at 10 µM, hits give high values"}, "[5]": {"target": "Cytochrome P450 1A2 (Homo sapiens) (UniProt P05177)", "sequence (P05177 whole entry, looked up)": "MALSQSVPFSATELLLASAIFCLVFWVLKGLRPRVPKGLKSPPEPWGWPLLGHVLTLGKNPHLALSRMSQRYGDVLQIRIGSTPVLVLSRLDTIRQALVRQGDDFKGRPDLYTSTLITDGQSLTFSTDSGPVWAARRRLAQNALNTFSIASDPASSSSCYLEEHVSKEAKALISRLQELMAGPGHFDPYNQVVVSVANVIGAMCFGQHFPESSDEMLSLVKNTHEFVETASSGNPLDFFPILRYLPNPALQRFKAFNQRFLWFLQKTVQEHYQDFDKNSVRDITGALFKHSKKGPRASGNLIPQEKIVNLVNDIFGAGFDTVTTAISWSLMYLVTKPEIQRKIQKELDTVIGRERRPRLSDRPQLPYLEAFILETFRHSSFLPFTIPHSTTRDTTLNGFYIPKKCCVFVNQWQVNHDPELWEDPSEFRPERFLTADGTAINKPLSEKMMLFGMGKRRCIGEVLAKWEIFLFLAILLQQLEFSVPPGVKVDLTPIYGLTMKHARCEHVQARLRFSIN", "conditions": "Ricerca radioligand binding/enzyme panel plus CYP450; CYP450, 1A2; at 10 µM; hits give high values"}, "[6]": {"target": "Cytochrome P450 2C9 (Homo sapiens) (UniProt P11712)", "sequence (P11712 whole entry, looked up)": "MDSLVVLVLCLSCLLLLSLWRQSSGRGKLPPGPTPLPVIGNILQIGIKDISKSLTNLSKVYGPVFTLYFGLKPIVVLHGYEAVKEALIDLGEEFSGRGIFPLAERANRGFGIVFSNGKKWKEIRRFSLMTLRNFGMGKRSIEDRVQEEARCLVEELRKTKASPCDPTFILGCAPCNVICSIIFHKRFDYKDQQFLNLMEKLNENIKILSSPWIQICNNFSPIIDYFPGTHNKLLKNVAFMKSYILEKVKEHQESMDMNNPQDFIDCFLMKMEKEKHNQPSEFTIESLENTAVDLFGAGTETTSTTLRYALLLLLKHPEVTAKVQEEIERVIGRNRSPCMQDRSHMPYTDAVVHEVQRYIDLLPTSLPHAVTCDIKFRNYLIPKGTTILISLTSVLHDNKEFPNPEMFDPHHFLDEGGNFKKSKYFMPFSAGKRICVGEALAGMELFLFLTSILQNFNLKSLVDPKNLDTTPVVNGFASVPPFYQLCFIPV", "conditions": "Ricerca radioligand binding/enzyme panel plus CYP450; CYP450, 2C9; at 10 µM; hits give high values"}, "[7]": {"target": "Cytochrome P450 2D6 (Homo sapiens) (UniProt P10635)", "sequence (P10635 whole entry, looked up)": "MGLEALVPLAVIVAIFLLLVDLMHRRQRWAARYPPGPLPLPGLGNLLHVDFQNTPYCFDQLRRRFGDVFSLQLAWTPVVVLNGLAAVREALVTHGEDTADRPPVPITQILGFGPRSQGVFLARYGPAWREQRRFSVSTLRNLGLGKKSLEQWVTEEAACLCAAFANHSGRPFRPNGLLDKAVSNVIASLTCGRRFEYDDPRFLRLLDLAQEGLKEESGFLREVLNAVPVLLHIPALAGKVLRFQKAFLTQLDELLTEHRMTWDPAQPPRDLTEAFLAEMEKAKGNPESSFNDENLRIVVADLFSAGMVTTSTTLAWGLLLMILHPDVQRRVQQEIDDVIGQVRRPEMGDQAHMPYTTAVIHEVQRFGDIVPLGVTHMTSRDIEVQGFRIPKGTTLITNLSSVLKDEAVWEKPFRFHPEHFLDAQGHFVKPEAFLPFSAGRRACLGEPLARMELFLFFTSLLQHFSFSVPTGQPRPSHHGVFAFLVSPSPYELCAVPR", "conditions": "Ricerca radioligand binding/enzyme panel plus CYP450; CYP450, 2D6; at 10 µM; hits give high values"}, "[8]": {"target": "Cytochrome P450 3A4 (Homo sapiens) (UniProt P08684)", "sequence (P08684 whole entry, looked up)": "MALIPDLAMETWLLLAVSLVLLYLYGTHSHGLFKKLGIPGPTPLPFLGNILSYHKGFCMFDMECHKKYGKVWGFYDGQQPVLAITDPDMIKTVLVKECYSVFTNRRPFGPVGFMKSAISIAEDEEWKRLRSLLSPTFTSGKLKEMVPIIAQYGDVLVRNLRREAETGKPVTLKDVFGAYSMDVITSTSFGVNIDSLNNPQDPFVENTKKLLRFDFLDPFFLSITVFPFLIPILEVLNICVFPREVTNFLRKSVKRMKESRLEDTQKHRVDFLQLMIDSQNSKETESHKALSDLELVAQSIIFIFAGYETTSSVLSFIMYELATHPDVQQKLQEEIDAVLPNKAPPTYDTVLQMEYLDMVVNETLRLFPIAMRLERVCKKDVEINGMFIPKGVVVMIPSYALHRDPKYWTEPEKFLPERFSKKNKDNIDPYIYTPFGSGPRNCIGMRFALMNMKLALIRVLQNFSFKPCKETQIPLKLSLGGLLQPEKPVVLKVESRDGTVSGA", "conditions": "Ricerca radioligand binding/enzyme panel plus CYP450; CYP450, 3A4; at 10 µM; hits give high values"}, "[9]": {"target": "D(1A) dopamine receptor (Homo sapiens) (UniProt P21728)", "sequence (P21728 whole entry, looked up)": "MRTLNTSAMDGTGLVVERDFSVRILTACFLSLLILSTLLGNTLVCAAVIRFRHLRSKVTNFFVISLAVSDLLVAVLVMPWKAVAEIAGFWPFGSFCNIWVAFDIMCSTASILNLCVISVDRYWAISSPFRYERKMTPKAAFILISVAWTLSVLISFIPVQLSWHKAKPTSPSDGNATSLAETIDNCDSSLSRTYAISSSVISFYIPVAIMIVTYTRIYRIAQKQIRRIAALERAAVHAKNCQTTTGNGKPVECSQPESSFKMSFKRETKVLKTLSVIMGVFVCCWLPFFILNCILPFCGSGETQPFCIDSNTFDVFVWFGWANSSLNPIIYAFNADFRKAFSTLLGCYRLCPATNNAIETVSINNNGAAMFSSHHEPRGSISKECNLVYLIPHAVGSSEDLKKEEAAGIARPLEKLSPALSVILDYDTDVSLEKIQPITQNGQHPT", "conditions": "Ricerca radioligand binding/enzyme panel plus CYP450; Dopamine D1; at 10 µM; hits give high values"}, "Dopamine D2S": {"test_system": "Dopamine D2S", "conditions": "Ricerca radioligand binding/enzyme panel plus CYP450, at 10 µM, hits give high values"}, "GABAA": {"test_system": "GABAA", "conditions": "Central, at 10 µM, hits give high values"}, "Glutamate NMDA": {"test_system": "Glutamate NMDA", "conditions": "Ricerca radioligand binding/enzyme panel plus CYP450, Phencyclidine, at 10 µM, hits give high values"}, "Histamine H1": {"test_system": "Histamine H1", "conditions": "Ricerca radioligand binding/enzyme panel plus CYP450, at 10 µM, hits give high values"}, "[10]": {"target": "Muscarinic acetylcholine receptor M2 (Homo sapiens) (UniProt P08172)", "sequence (P08172 whole entry, looked up)": "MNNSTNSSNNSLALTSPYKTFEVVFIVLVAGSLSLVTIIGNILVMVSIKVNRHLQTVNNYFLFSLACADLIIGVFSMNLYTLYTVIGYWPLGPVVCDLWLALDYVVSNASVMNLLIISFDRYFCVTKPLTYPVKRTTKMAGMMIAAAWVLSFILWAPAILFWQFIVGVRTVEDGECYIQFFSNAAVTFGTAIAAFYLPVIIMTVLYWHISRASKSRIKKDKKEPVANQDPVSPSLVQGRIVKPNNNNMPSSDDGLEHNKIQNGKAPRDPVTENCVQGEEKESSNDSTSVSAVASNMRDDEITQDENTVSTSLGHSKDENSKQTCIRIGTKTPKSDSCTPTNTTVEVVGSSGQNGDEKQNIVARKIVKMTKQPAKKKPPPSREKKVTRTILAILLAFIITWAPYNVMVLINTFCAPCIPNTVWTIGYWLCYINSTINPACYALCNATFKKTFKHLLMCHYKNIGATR", "conditions": "Ricerca radioligand binding/enzyme panel plus CYP450, at 10 µM, hits give high values"}, "[11]": {"target": "Muscarinic acetylcholine receptor M3 (Homo sapiens) (UniProt P20309)", "sequence (P20309 whole entry, looked up)": "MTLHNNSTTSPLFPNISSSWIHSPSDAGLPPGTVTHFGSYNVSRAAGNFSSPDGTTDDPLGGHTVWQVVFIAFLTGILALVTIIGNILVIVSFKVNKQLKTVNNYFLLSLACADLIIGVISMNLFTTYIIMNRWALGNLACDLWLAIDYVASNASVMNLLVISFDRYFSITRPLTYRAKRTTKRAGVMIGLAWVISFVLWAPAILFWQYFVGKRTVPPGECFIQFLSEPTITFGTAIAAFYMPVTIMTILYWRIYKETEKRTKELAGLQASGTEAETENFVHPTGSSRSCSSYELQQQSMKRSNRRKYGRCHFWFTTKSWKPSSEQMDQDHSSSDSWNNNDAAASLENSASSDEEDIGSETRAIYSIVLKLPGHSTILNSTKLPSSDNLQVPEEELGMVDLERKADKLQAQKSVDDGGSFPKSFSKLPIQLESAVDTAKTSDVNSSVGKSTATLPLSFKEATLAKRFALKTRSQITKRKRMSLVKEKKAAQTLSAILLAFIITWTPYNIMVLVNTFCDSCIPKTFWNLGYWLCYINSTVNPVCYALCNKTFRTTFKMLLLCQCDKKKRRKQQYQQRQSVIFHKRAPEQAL", "conditions": "Ricerca radioligand binding/enzyme panel plus CYP450, at 10 µM, hits give high values"}, "Nicotinic Acetylcholine": {"test_system": "Nicotinic Acetylcholine", "conditions": "Ricerca radioligand binding/enzyme panel plus CYP450, at 10 µM, hits give high values"}, "Opiate mu (OP3, MOP)": {"test_system": "Opiate mu (OP3, MOP)", "conditions": "Ricerca radioligand binding/enzyme panel plus CYP450, at 10 µM, hits give high values"}, "Prostanoid EP4": {"test_system": "Prostanoid EP4", "conditions": "Ricerca radioligand binding/enzyme panel plus CYP450, at 10 µM, hits give high values"}, "Sigma 1": {"test_system": "Sigma 1", "conditions": "Ricerca radioligand binding/enzyme panel plus CYP450, at 10 µM, hits give high values"}, "Sodium Channel, Site 2": {"test_system": "Sodium Channel, Site 2", "conditions": "Ricerca radioligand binding/enzyme panel plus CYP450, at 10 µM, hits give high values"}, "[12]": {"test_system": "Transporter, Norepinephrine (NET)", "conditions": "Ricerca radioligand binding/enzyme panel plus CYP450, at 10 µM, hits give high values"}, "[13]": {"target": "Voltage-gated inwardly rectifying potassium channel KCNH2 (Homo sapiens) (UniProt Q12809)", "conditions": "Ricerca radioligand binding/enzyme panel plus CYP450; Potassium Channel hERG; at 10 µM; hits give high values"}},
  "note": "Activity calls are given as the source filed them. The rule behind the calls is not given here.",
  "data": [
    {"smiles": "Clc1ccc(OCCOc2ccc(Br)nc2Br)c(Cl)c1", "values": [
      {"measurement": "inhibition", "setting": "[1]", "result": "27% (inactive)"},
      {"measurement": "inhibition", "setting": "Adenosine A1", "result": "7% (inactive)"},
      {"measurement": "inhibition", "setting": "Adenosine A2A", "result": "10% (inactive)"},
      {"measurement": "inhibition", "setting": "Adrenergic alpha1A", "result": "28% (inactive)"},
      {"measurement": "inhibition", "setting": "Adrenergic alpha1B", "result": "26% (inactive)"},
      {"measurement": "inhibition", "setting": "Adrenergic beta1", "result": "12% (inactive)"},
      {"measurement": "inhibition", "setting": "[2]", "result": "9% (inactive)"},
      {"measurement": "inhibition", "setting": "[3]", "result": "0% (inactive)"},
      {"measurement": "inhibition", "setting": "[4]", "result": "7% (inactive)"},
      {"measurement": "inhibition", "setting": "CYP450, 2C19", "result": 97, "unit": "%"},
      {"measurement": "inhibition", "setting": "Calcium Channel L-Type", "result": 51, "unit": "%"},
      {"measurement": "inhibition", "setting": "Cannabinoid CB1", "result": "31% (inactive)"},
      {"measurement": "inhibition", "setting": "[5]", "result": 58, "unit": "%"},
      {"measurement": "inhibition", "setting": "[6]", "result": "3% (inactive)"},
      {"measurement": "inhibition", "setting": "[7]", "result": "2% (inactive)"},
      {"measurement": "inhibition", "setting": "[8]", "result": "-5% (inactive)"},
      {"measurement": "inhibition", "setting": "[9]", "result": "18% (inactive)"},
      {"measurement": "inhibition", "setting": "Dopamine D2S", "result": "25% (inactive)"},
      {"measurement": "inhibition", "setting": "GABAA; Ricerca radioligand binding/enzyme panel plus CYP450, Flunitrazepam", "result": "2% (inactive)"},
      {"measurement": "inhibition", "setting": "GABAA; Ricerca radioligand binding/enzyme panel plus CYP450, Muscimol", "result": "1% (inactive)"},
      {"measurement": "inhibition", "setting": "Glutamate NMDA", "result": "-5% (inactive)"},
      {"measurement": "inhibition", "setting": "Histamine H1", "result": "15% (inactive)"},
      {"measurement": "inhibition", "setting": "[10]", "result": "2% (inactive)"},
      {"measurement": "inhibition", "setting": "[11]", "result": "-3% (inactive)"},
      {"measurement": "inhibition", "setting": "Nicotinic Acetylcholine", "result": "-4% (inactive)"},
      {"measurement": "inhibition", "setting": "Opiate mu (OP3, MOP)", "result": "9% (inactive)"},
      {"measurement": "inhibition", "setting": "Prostanoid EP4", "result": "-7% (inactive)"},
      {"measurement": "inhibition", "setting": "Sigma 1", "result": "22% (inactive)"},
      {"measurement": "inhibition", "setting": "Sodium Channel, Site 2", "result": "32% (inactive)"},
      {"measurement": "inhibition", "setting": "[12]", "result": 68, "unit": "%"},
      {"measurement": "inhibition", "setting": "[13]", "result": "-1% (inactive)"}
    ]}
  ]
}
